Data reported in ChEMBL document CHEMBL4680160, “A perspective review on fatty acid amide hydrolase (FAAH) inhibitors as potential therapeutic agents” (Eur J Med Chem, 2020).
pIC50: −log10 of the molar value.

Assays:
[1] = biological target: T1, Fatty-acid amide hydrolase 1 (Homo sapiens, UniProt O00519); experiment: Inhibition of human FAAH expressed in HEK293 cells using AMC arachidonyl amide as substrate pre-incubated for 50 mins followed by substrate addition and measured after 30 mins by fluorescence method; format: cell-based
T1 sequence (O00519 whole entry): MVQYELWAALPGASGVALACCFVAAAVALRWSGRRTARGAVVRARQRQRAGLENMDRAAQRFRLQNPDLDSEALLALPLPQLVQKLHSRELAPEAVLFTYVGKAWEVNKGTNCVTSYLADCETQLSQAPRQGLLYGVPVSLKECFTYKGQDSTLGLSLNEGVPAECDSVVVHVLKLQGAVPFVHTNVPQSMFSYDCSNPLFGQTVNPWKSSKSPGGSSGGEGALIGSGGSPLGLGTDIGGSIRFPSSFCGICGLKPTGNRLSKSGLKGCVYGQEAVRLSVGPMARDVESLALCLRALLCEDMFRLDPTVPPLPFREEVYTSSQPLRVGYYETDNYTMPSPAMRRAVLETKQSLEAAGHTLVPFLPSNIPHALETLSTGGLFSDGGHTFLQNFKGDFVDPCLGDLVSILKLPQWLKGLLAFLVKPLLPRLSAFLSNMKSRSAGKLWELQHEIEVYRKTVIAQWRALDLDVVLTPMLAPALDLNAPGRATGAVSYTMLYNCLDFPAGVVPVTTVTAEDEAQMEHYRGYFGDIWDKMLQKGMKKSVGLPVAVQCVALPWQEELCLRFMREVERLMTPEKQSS

[2] = biological target: T2, Fatty-acid amide hydrolase 1 (Rattus norvegicus, UniProt P97612); experiment: Inhibition of FAAH in Sprague-Dawley rat brain homogenate using arachidonoyl-ethanolamide and anandamide [ethanolamine-1-3H] as substrate pre-incubated for 10 mins followed by substrate addition and measured after 30 mins by liquid scintillation counting method; format: tissue-based
T2 sequence (P97612 whole entry): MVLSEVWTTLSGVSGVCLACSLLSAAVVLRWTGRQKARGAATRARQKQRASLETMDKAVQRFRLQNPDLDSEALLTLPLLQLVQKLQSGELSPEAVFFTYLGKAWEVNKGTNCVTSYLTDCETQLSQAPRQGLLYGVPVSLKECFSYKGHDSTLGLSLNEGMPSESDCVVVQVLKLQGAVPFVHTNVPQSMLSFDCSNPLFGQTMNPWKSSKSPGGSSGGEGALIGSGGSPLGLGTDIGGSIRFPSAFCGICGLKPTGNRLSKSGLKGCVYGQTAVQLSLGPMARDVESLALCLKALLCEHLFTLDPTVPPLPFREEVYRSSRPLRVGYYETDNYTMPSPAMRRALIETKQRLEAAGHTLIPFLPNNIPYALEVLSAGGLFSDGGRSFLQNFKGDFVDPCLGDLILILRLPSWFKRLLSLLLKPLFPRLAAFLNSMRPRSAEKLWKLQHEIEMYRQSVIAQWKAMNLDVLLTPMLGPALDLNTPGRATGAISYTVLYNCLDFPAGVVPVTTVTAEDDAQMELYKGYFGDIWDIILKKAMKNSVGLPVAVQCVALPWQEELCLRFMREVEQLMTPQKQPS

[3] = Kinetic solubility of compound in PBS at pH 7.4; format: physicochemical; settings: read-out: Kinetic_solubility
Cannabinoid receptor 2 = Cannabinoid receptor 2 (Homo sapiens, UniProt P34972); experiment: Displacement of [3H]-CP55940 from recombinant human CB2 receptor expressed in CHO cells incubated for 90 mins by scintillation counting method; format: cell-based
[4] = biological target: T2, Fatty-acid amide hydrolase 1; experiment: Inhibition of rat FAAH expressed in HEK293 cells using AEA as substrate by HPLC-MS/MS analysis; format: cell-based
[5] = biological target: T3, Fatty-acid amide hydrolase 1 (Rattus norvegicus) (UniProt P97612); experiment: Inhibition of FAAH in rat brain homogenate using [3H]AEA as substrate at 100 uM incubated for 10 mins by liquid scintillation spectroscopy relative to control; format: tissue-based
T3 sequence (whole entry): T2 sequence (P97612 whole entry)

[6] = biological target: T1, Fatty-acid amide hydrolase 1; experiment: Inhibition of human recombinant FAAH using (AMC) arachidonoyl amide as substrate preincubated for 5 mins followed by substrate addition and measured after 30 mins by fluorescence method
[7] = biological target: T3, Fatty-acid amide hydrolase 1 (Rattus norvegicus); experiment: Inhibition of rat FAAH expressed in HEK293 cells using AEA as substrate at 100 uM by liquid chromatography/mass spectroscopy relative to control; format: cell-based
[8] = biological target: T1, Fatty-acid amide hydrolase 1; experiment: Inhibition of FAAH (unknown origin)
[9] = biological target: T3, Fatty-acid amide hydrolase 1 (Rattus norvegicus); experiment: Inhibition of FAAH in rat brain homogenate using AEA as substrate at 100 nM preincubated for 15 mins followed by substrate addition and measured after 10 mins by scintillation counting method relative to control; format: tissue-based; settings: time 25.0 min
[10] = biological target: T4, Fatty-acid amide hydrolase 1 (Mus musculus, UniProt O08914); experiment: Inhibition of FAAH in OF1 albino mouse brain homogenate assessed as reduction in [3H]ethanolamine production using [3H]anandamide as substrate; format: tissue-based
T4 sequence (O08914 whole entry): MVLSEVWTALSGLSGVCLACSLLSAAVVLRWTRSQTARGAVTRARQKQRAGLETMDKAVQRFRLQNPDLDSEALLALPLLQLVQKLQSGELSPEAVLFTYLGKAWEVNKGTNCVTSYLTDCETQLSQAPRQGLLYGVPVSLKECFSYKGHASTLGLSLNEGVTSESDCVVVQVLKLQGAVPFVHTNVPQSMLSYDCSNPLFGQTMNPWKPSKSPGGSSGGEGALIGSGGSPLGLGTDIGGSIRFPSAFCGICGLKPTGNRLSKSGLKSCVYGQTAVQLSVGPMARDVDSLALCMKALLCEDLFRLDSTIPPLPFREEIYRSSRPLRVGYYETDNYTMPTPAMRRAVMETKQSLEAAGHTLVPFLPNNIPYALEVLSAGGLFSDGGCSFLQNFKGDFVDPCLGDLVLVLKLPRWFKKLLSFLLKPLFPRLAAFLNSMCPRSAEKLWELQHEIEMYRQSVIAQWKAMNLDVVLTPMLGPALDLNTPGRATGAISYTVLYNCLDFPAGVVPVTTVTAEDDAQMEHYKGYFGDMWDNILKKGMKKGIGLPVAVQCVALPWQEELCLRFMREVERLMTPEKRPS

Chain of Cannabinoid receptor 2 (P34972 whole entry): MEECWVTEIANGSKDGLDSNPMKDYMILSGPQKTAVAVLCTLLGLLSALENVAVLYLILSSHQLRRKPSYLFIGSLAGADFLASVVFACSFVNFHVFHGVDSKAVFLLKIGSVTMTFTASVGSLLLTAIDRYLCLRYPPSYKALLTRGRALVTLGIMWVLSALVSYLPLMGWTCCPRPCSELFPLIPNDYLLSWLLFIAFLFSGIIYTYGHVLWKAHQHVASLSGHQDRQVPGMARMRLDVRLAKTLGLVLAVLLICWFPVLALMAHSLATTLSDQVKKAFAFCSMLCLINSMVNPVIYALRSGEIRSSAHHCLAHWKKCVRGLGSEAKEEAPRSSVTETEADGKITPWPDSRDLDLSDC

O=C(NCCCCN1CCN(c2cccc(Cl)c2Cl)CC1)Oc1cccc2ccccc12
pIC50 [1]: 8.21
pIC50 [2]: 7.66
solubility kinetic [3]: < 1 µM

CCCCCOc1ccc(-c2cc(C(=O)NC34CC5CC(CC(C5)C3)C4)no2)cc1
pIC50 (Cannabinoid receptor 2): < 6.00

O=C(NCCCc1ccccc1)n1cc(C(F)(F)F)c(=O)[nH]c1=O
pIC50 [4]: 7.68

Cc1ccccc1N1CCN(C(=O)C(C)c2ccc(CC(C)C)cc2)CC1 (centres undefined)
inhibition [5]: 33%

O=C1/C(=N/c2nc3ccccc3[nH]2)c2ccccc2N1C(=O)c1ccc(Cl)cc1Cl
pIC50 [6]: 5.83

COc1cccc(N2CCN(C(=O)C(C)c3ccc(CC(C)C)cc3)CC2)c1 (centres undefined)
inhibition [5]: 41%

NC(=O)c1ccc(-c2ccc(OC(=O)NCCCCN3CCN(c4cccc(Cl)c4Cl)CC3)cc2)cc1
pIC50 [1]: 9.22
pIC50 [2]: 9.15

CCCCCCCC/C=C\CCCCCCCC(=O)NO
inhibition [7]: 98.3%

NC(=O)c1cccc(-c2cccc(OC(=O)NCCCN3CCN(c4cccc(Cl)c4Cl)CC3)c2)c1
pIC50 [2]: 10.00

O=C(NCCc1ccc(-c2ccccc2)cc1)n1ccc(=O)[nH]c1=O
pIC50 [4]: 7.28

CCCCCOc1ccccc1-c1cc(C(=O)NC23CC4CC(CC(C4)C2)C3)no1
pIC50 [8]: < 5.00

CN(C(=O)n1cnc(-c2ccc[n+]([O-])c2)c1)C1CCCCC1
inhibition [9]: 85%

COc1ccc2c(cccc2[C@H]2CO[C@H](CCCNC(=O)OCC(N)=O)OC2)c1
pIC50 [10]: 7.20

CC(C)Cc1ccc(C(C)C(=O)NCc2c(Cl)cccc2Cl)cc1 (centres undefined)
inhibition [5]: 19%

O=C(NCCCCN1CCN(c2cccc(Cl)c2Cl)CC1)Oc1ccc2ccccc2c1
pIC50 [1]: 8.57
pIC50 [2]: 7.89
